{
  "source": "patent US11213555B2",
  "about": "“Intravenous injection for enhancing immune function” (priority 2016, dated 2022)",
  "key": {"monocytes-macrophages [1]": {"system": "monocytes-macrophages", "conditions": "immunosuppressed mice (dexamethasone 40 mg/kg i.p., five days); 0.2 mg/kg via tail vein, once a day for five days"}, "monocytes-macrophages [2]": {"system": "monocytes-macrophages", "test": "Carbon clearance assay, phagocytosis of monocytes-macrophages in normal mice", "conditions": "normal Kunming mice; 0.2 mg/kg via tail vein, once a day for five days; 2 h after last dose"}, "[3]": {"test": "Spleen index (immune organ index) in immunosuppressed mouse models", "conditions": "immunosuppressed mice (dexamethasone 40 mg/kg i.p., five days); 0.2 mg/kg via tail vein, once a day for five days"}, "[4]": {"system": "Ehrlich ascites carcinoma", "test": "Body weight gain and spleen index of Ehrlich ascites carcinoma mice", "conditions": "EAC ICR mice; 0.2 mg/kg via tail vein, one day before inoculation then 7 consecutive days"}, "[5]": {"test": "Spleen index (immune organ index) in normal mice", "conditions": "0.2 mg/kg via tail vein, once a day for five days, 2 h after last dose"}},
  "note": "Where two headings read alike, the source gives them in different places. Ends that are not written are not given here.",
  "data": [
    {"substance": "RKDVY [Thymopentin, thymopentin]", "values": [
      {"measurement": "Carbon clearance index K × 10^3", "setting": "monocytes-macrophages [1]", "result": "7.773 ± 1.018^ΔΔ"},
      {"measurement": "Carbon clearance index K × 10^3", "setting": "monocytes-macrophages [2]", "result": "4.874 ± 0.582 ^"},
      {"measurement": "Spleen index (%)", "setting": "[3]", "result": "0.546 ± 0.097^ΔΔ %"},
      {"measurement": "Body weight gain", "setting": "[4]", "result": "6.190 ± 2.087", "unit": "g"},
      {"measurement": "Spleen index (%)", "setting": "[4]", "result": "0.221 ± 0.036", "unit": "%"},
      {"measurement": "Spleen index (%)", "setting": "[5]", "result": "0.642 ± 0.091", "unit": "%"}
    ]}
  ]
}
